Measurements published in ChEMBL document CHEMBL3885861, “Open TG-GATES”.

Organism: Rattus norvegicus
Test: Open TG-GATES - Regimen: Single
Format: toxicity, organism-based, Sprague-Dawley
Set-up: regimen Single, gender Male, age 6 weeks
Details: in vivo, po, route gavage; for APTT / Bas / Eos / Fbg / Hb / Ht / Lym / MCH / MCHC / MCV / Mono / Neu / PT / Plat / RBC / Ret / WBC: tissue Blood; for KIDNEY_L / KIDNEY_R / KIDNEY_TOTAL: tissue Kidney; for LIVER: tissue Liver; for A/G / ALP / ALT / AST / BUN / CRE / Ca / Cl / DBIL / GLC / IP / K / LDH / Na / PL / RALB / TBIL / TC / TG / TP / gamma-GTP: tissue Plasma
[1] = 50 mg/kg, 3 h, dose level Middle
[2] = 50 mg/kg, 6 h, dose level Middle
[3] = 50 mg/kg, 9 h, dose level Middle
[4] = 50 mg/kg, 24 h, dose level Middle
[5] = 150 mg/kg, 3 h, dose level High
[6] = 150 mg/kg, 6 h, dose level High
[7] = 150 mg/kg, 9 h, dose level High
[8] = 150 mg/kg, 24 h, dose level High

## CN(C)CCC=C1c2ccccc2CCc2ccccc21 [AMITRIPTYLINE]
[1]
  TERMINAL_BW: 194.1 g
  APTT: 16.5 s
  Bas: 0.4%
  Eos: 1%
  Fbg: 273 mg/dL
  Hb: 13.2 g/dL
  Ht: 41.1%
  Lym: 74%
  MCH: 21.1 pg
  MCHC: 32.2%
  MCV: 65.4 fL
  Mono: 3.4%
  Neu: 20.4%
  PT: 15.8 s
  Plat: 128.6 x10_4/uL
  RBC: 629.2 x10_4/ul
  Ret: 9.2%
  WBC: 102.1 x10_2/uL
  KIDNEY_L: 0.9 g
  KIDNEY_R: 0.9 g
  KIDNEY_TOTAL: 1.7 g
  LIVER: 8.7 g
  A/G: 0.8
  ALP: 1574.4 IU/L
  ALT: 62.8 IU/L
  AST: 79 IU/L
  BUN: 8 mg/dL
  CRE: 0.2 mg/dL
  Ca: 11 mg/dL
  Cl: 107.8 meq/L
  DBIL: 0.012 mg/dL
  GLC: 192.8 mg/dL
  IP: 9.3 mg/dL
  K: 4.2 meq/L
  LDH: 90.8 IU/L
  Na: 144.2 meq/L
  PL: 143.2 mg/dL
  RALB: 2.5 g/dL
  TBIL: 0.062 mg/dL
  TC: 78.8 mg/dL
  TG: 42.8 mg/dL
  TP: 5.5 g/dL
  gamma-GTP: 0.8 IU/L
[2]
  TERMINAL_BW: 191.7 g
  APTT: 15.9 s
  Bas: 0.4%
  Eos: 1%
  Fbg: 283 mg/dL
  Hb: 13.1 g/dL
  Ht: 40.7%
  Lym: 72.6%
  MCH: 20.9 pg
  MCHC: 32.4%
  MCV: 64.7 fL
  Mono: 3%
  Neu: 22.4%
  PT: 15.9 s
  Plat: 117.4 x10_4/uL
  RBC: 629.4 x10_4/ul
  Ret: 9.3%
  WBC: 84.5 x10_2/uL
  KIDNEY_L: 0.9 g
  KIDNEY_R: 0.9 g
  KIDNEY_TOTAL: 1.8 g
  LIVER: 7.9 g
  A/G: 0.9
  ALP: 1530.6 IU/L
  ALT: 47 IU/L
  AST: 76.4 IU/L
  BUN: 6.8 mg/dL
  CRE: 0.1 mg/dL
  Ca: 10.7 mg/dL
  Cl: 106.8 meq/L
  DBIL: 0.006 mg/dL
  GLC: 179.2 mg/dL
  IP: 9.9 mg/dL
  K: 4.1 meq/L
  LDH: 65.4 IU/L
  Na: 143.4 meq/L
  PL: 138.2 mg/dL
  RALB: 2.5 g/dL
  TBIL: 0.07 mg/dL
  TC: 81.2 mg/dL
  TG: 34.8 mg/dL
  TP: 5.5 g/dL
  gamma-GTP: 0.8 IU/L
[3]
  TERMINAL_BW: 188 g
  APTT: 16.3 s
  Bas: 0%
  Eos: 1%
  Fbg: 282.6 mg/dL
  Hb: 13.2 g/dL
  Ht: 40.4%
  Lym: 74%
  MCH: 21.1 pg
  MCHC: 32.7%
  MCV: 64.5 fL
  Mono: 2.2%
  Neu: 22%
  PT: 15.7 s
  Plat: 117.9 x10_4/uL
  RBC: 626.2 x10_4/ul
  Ret: 8.6%
  WBC: 86.3 x10_2/uL
  KIDNEY_L: 0.8 g
  KIDNEY_R: 0.8 g
  KIDNEY_TOTAL: 1.6 g
  LIVER: 7.4 g
  A/G: 0.9
  ALP: 1395.8 IU/L
  ALT: 42.4 IU/L
  AST: 73.8 IU/L
  BUN: 8 mg/dL
  CRE: 0.1 mg/dL
  Ca: 10.8 mg/dL
  Cl: 107.2 meq/L
  DBIL: 0.014 mg/dL
  GLC: 170.2 mg/dL
  IP: 9.9 mg/dL
  K: 4.2 meq/L
  LDH: 72.8 IU/L
  Na: 142.4 meq/L
  PL: 143.4 mg/dL
  RALB: 2.5 g/dL
  TBIL: 0.062 mg/dL
  TC: 79.2 mg/dL
  TG: 49.8 mg/dL
  TP: 5.4 g/dL
  gamma-GTP: 1 IU/L
[4]
  TERMINAL_BW: 205.9 g
  APTT: 16.7 s
  Bas: 0.2%
  Eos: 1%
  Fbg: 268 mg/dL
  Hb: 13.1 g/dL
  Ht: 39.8%
  Lym: 79.2%
  MCH: 21.1 pg
  MCHC: 32.8%
  MCV: 64.4 fL
  Mono: 2.6%
  Neu: 16.2%
  PT: 16.4 s
  Plat: 117.1 x10_4/uL
  RBC: 618.8 x10_4/ul
  Ret: 8.8%
  WBC: 101.4 x10_2/uL
  KIDNEY_L: 0.9 g
  KIDNEY_R: 0.9 g
  KIDNEY_TOTAL: 1.7 g
  LIVER: 9.2 g
  A/G: 0.8
  ALP: 1528.4 IU/L
  ALT: 49.8 IU/L
  AST: 72.6 IU/L
  BUN: 14.2 mg/dL
  CRE: 0.2 mg/dL
  Ca: 11 mg/dL
  Cl: 105.2 meq/L
  DBIL: 0.018 mg/dL
  GLC: 181.6 mg/dL
  IP: 7.1 mg/dL
  K: 4.3 meq/L
  LDH: 69.2 IU/L
  Na: 142.6 meq/L
  PL: 153 mg/dL
  RALB: 2.6 g/dL
  TBIL: 0.056 mg/dL
  TC: 82.6 mg/dL
  TG: 97.8 mg/dL
  TP: 5.6 g/dL
  gamma-GTP: 0.2 IU/L
[5]
  TERMINAL_BW: 193.9 g
  APTT: 15.9 s
  Bas: 0.2%
  Eos: 0.4%
  Fbg: 285.6 mg/dL
  Hb: 13.4 g/dL
  Ht: 41.6%
  Lym: 75%
  MCH: 20.9 pg
  MCHC: 32.1%
  MCV: 65 fL
  Mono: 3.2%
  Neu: 20.4%
  PT: 16 s
  Plat: 120.6 x10_4/uL
  RBC: 641.4 x10_4/ul
  Ret: 9.3%
  WBC: 71.3 x10_2/uL
  KIDNEY_L: 0.9 g
  KIDNEY_R: 0.9 g
  KIDNEY_TOTAL: 1.7 g
  LIVER: 8.5 g
  A/G: 0.8
  ALP: 1527.2 IU/L
  ALT: 53.2 IU/L
  AST: 74.6 IU/L
  BUN: 7.8 mg/dL
  CRE: 0.2 mg/dL
  Ca: 10.9 mg/dL
  Cl: 107.4 meq/L
  DBIL: 0.006 mg/dL
  GLC: 188 mg/dL
  IP: 9.9 mg/dL
  K: 4.3 meq/L
  LDH: 67.4 IU/L
  Na: 145.6 meq/L
  PL: 138.8 mg/dL
  RALB: 2.5 g/dL
  TBIL: 0.058 mg/dL
  TC: 77 mg/dL
  TG: 40.6 mg/dL
  TP: 5.5 g/dL
  gamma-GTP: 0.8 IU/L
[6]
  TERMINAL_BW: 191.7 g
  APTT: 16.4 s
  Bas: 0%
  Eos: 0.6%
  Fbg: 273.8 mg/dL
  Hb: 12.7 g/dL
  Ht: 39.3%
  Lym: 74%
  MCH: 20.9 pg
  MCHC: 32.3%
  MCV: 64.6 fL
  Mono: 3.2%
  Neu: 21.2%
  PT: 15.7 s
  Plat: 123.7 x10_4/uL
  RBC: 610.2 x10_4/ul
  Ret: 9.3%
  WBC: 89.4 x10_2/uL
  KIDNEY_L: 0.8 g
  KIDNEY_R: 0.8 g
  KIDNEY_TOTAL: 1.6 g
  LIVER: 7.8 g
  A/G: 0.9
  ALP: 1508.6 IU/L
  ALT: 50.4 IU/L
  AST: 71 IU/L
  BUN: 7.4 mg/dL
  CRE: 0.1 mg/dL
  Ca: 10.7 mg/dL
  Cl: 108.2 meq/L
  DBIL: 0.004 mg/dL
  GLC: 179.6 mg/dL
  IP: 9.9 mg/dL
  K: 4.4 meq/L
  LDH: 57.4 IU/L
  Na: 143.4 meq/L
  PL: 149.6 mg/dL
  RALB: 2.5 g/dL
  TBIL: 0.058 mg/dL
  TC: 85.6 mg/dL
  TG: 28.8 mg/dL
  TP: 5.4 g/dL
  gamma-GTP: 0.6 IU/L
[7]
  TERMINAL_BW: 193.2 g
  APTT: 15.6 s
  Bas: 0%
  Eos: 0.8%
  Fbg: 305.8 mg/dL
  Hb: 13.1 g/dL
  Ht: 40.5%
  Lym: 65.4%
  MCH: 21 pg
  MCHC: 32.4%
  MCV: 64.8 fL
  Mono: 2.6%
  Neu: 30.2%
  PT: 15.6 s
  Plat: 125.8 x10_4/uL
  RBC: 625.2 x10_4/ul
  Ret: 9.1%
  WBC: 70.1 x10_2/uL
  KIDNEY_L: 0.8 g
  KIDNEY_R: 0.8 g
  KIDNEY_TOTAL: 1.7 g
  LIVER: 7.7 g
  A/G: 0.8
  ALP: 1542.6 IU/L
  ALT: 44.8 IU/L
  AST: 68.6 IU/L
  BUN: 7 mg/dL
  CRE: 0.1 mg/dL
  Ca: 10.8 mg/dL
  Cl: 107 meq/L
  DBIL: 0.01 mg/dL
  GLC: 193.4 mg/dL
  IP: 10.7 mg/dL
  K: 4.1 meq/L
  LDH: 82.4 IU/L
  Na: 143.4 meq/L
  PL: 142 mg/dL
  RALB: 2.5 g/dL
  TBIL: 0.06 mg/dL
  TC: 80.8 mg/dL
  TG: 42.2 mg/dL
  TP: 5.5 g/dL
  gamma-GTP: 1 IU/L
[8]
  TERMINAL_BW: 191.9 g
  APTT: 16.6 s
  Bas: 0.2%
  Eos: 1.2%
  Fbg: 277.4 mg/dL
  Hb: 13.6 g/dL
  Ht: 41.4%
  Lym: 80.4%
  MCH: 20.9 pg
  MCHC: 32.8%
  MCV: 63.7 fL
  Mono: 3%
  Neu: 14.6%
  PT: 17 s
  Plat: 123.6 x10_4/uL
  RBC: 649.6 x10_4/ul
  Ret: 8.1%
  WBC: 79.1 x10_2/uL
  KIDNEY_L: 0.9 g
  KIDNEY_R: 0.9 g
  KIDNEY_TOTAL: 1.8 g
  LIVER: 7.6 g
  A/G: 0.8
  ALP: 1505.6 IU/L
  ALT: 40.4 IU/L
  AST: 63 IU/L
  BUN: 13.8 mg/dL
  CRE: 0.2 mg/dL
  Ca: 10.9 mg/dL
  Cl: 105 meq/L
  DBIL: 0.016 mg/dL
  GLC: 182.6 mg/dL
  IP: 8.7 mg/dL
  K: 4.4 meq/L
  LDH: 58 IU/L
  Na: 142.2 meq/L
  PL: 133 mg/dL
  RALB: 2.5 g/dL
  TBIL: 0.062 mg/dL
  TC: 78.8 mg/dL
  TG: 47.8 mg/dL
  TP: 5.6 g/dL
  gamma-GTP: 1 IU/L
